Consider five compounds from ChEMBL document CHEMBL1127015, “Centrally acting serotonergic and dopaminergic agents. 1. Synthesis and structure-activity relationships of 2,3,3a,4,5,9b-hexahydro-1H-benz[e]indole derivatives” (J Med Chem, 1993).

For test [1], the system named is Mus musculus. Put plainly: Antagonism of apomorphine for 0-10 minutes in reserpinized mice when a dose of 3.6 micro mol/kg is administered intraperitoneally. Type of test: functional.
The test system of test [2] is Mus musculus. The experiment in a line: Antagonism of apomorphine effects for 0-10 minutes in reserpinized mice following 0.4 umol/kg i.p. In kind it is functional. Also noted: unit not given beside the values.
Test [3] has as its target T1, D(2) dopamine receptor (Homo sapiens, UniProt P14416). Put plainly: Binding affinity against [3H]U-86,170-labeled dopamine receptor D2 in cloned CHO cells. Type of test: cell-based.
Test [4] has as its system Mus musculus. The experiment in a line: Antagonism of apomorphine effects in reserpinized mice following 0.4 umol/kg i.p. Type of test: functional.
Test [5] deals with Mus musculus. Put plainly: Antagonism of apomorphine for 10-20 minutes in reserpinized mice when a dose of 3.6 micro mol/kg is administered intraperitoneally. Type of test: functional.
Test [6] relates to Mus musculus. The experiment in a line: Antagonism of apomorphine effects for 10-20 minutes in reserpinized mice following 0.4 umol/kg i.p. Type of test: functional.
Test [7] is filed under the species Rattus norvegicus. Put plainly: Effect on the synthesis rates of serotonin (5-HTP accumulation) in the rat ventral limbic brain region at 3.6uMkg. Type of test: functional, Limbic system.
The test system of test [8] is Mus musculus. Put plainly: Antagonism of apomorphine for 0-10 minutes in reserpinized mice when a dose of 36 micro mol/kg is administered intraperitoneally. In kind it is functional.
Test [9] relates to Mus musculus. The experiment in a line: Increase in locomotor activity in reserpinized mice following 0.4 umol/kg i.p. Type of test: functional.
Test [10] concerns Mus musculus. The experiment in a line: Effective dose on hypothermia in mouse when administered subcutaneously. Particulars: sc. Type of test: functional.
Test [11] relates to Mus musculus. Put plainly: Antagonism of apomorphine in reserpinized mice when a dose of 36 micro mol/kg is administered intraperitoneally. Type of test: functional.
In test [12] the test system is Mus musculus. Put plainly: Ability to stimulate dopaminergic systems by effect on locomotor activity in reserpinized mice when a dose of 36 micro mol/kg is administered intraperitoneally. In kind it is functional.
In test [13] the test system is Mus musculus. Put plainly: Antagonism of apomorphine for 10-20 minutes in reserpinized mice when a dose of 36 micro mol/kg is administered intraperitoneally. In kind it is functional.
For test [14], the system named is Mus musculus. The experiment in a line: Ability to stimulate dopaminergic systems by effect on locomotor activity in reserpinized mice when a dose of 3.6 micro mol/kg is administered intraperitoneally. Type of test: functional.
In test [15] the test system is Mus musculus. Put plainly: Maximum decrease in temperature when compound is administered subcutaneously. In kind it is functional.
Test [16] concerns the target T1, D(2) dopamine receptor. The experiment in a line: Intrinsic activity from GTP shift using membranes from CHO cells transfected with mammalian dopamine receptor D2. In kind it is cell membranes.
The subject of test [17] is Mus musculus. Put plainly: Antagonism of apomorphine in reserpinized mice when a dose of 3.6 micro mol/kg is administered intraperitoneally. Type of test: functional.
The species named for test [18] is Rattus norvegicus. The experiment in a line: Effect on the synthesis rates of serotonin (5-HTP accumulation) in the rat ventral limbic brain region at 3.6uMkg. In kind it is functional, Limbic system.
Test [19] concerns Mus musculus. Put plainly: Maximum decrease in temperature when compound is administered through peroral route. Type of test: functional.
Test [20] deals with Felis catus. Put plainly: Maximum decrease of arterial blood pressure at sympathetic nerve activity (SND) in anesthetized cat has been observed following 1 mg/kg dose. Type of test: functional. Set-up: scale not given: the % may be the effect or the level left.
The test system of test [21] is Mus musculus. Put plainly: Effective dose on hypothermia in mouse when administered through peroral route. Type of test: functional. Particulars: po.
Test [22] has as its system Rattus norvegicus. The experiment in a line: Inhibition of firing rates of serotonergic neurons in the dorsal raphe nucleus by intravenous injection in rats. Type of test: functional.
Test [23] relates to Felis catus. The experiment in a line: Maximum decrease of sympathetic nerve activity (SND) in anesthetized cat. Set-up: scale not given: the % may be the effect or the level left. Type of test: functional.
The test system of test [24] is Rattus norvegicus. Put plainly: Effect on the synthesis rates of dopamine (DOPA accumulation) in the rat ventral limbic brain region at 3.6 micro mol/kg. In kind it is functional, Limbic system.
The test system of test [25] is Mus musculus. Put plainly: Time of effect in the isolation-induced aggression behavioral assay in the mouse when a dose of 0.0 micro mol/kg is administered perorally. In kind it is functional.
Test [26] concerns Mus musculus. The experiment in a line: Time of effect in the face-to-face behavioral assay in the mouse when a dose of 36 micro mol/kg is administered perorally. Type of test: functional.
Test [27] has as its system Mus musculus. Put plainly: Time of effect in the face-to-face behavioral assay in the mouse when a dose of 0.4 micro mol/kg is administered perorally. Type of test: functional.
Test [28] deals with Mus musculus. The experiment in a line: Time of effect in the isolation-induced aggression behavioral assay in the mouse when a dose of 36 micro mol/kg is administered perorally. Type of test: functional.
Test [29] concerns Rattus norvegicus. Put plainly: Inhibition of firing rates of serotonergic neurons in the dorsal raphe nucleus by intravenous injection in rats. In kind it is functional.
Test [30] has as its system Mus musculus. Put plainly: Time of effect in the face-to-face behavioral assay in the mouse when a dose of 0.0 micro mol/kg is administered perorally. In kind it is functional.
Test [31] concerns Rattus norvegicus. The experiment in a line: Inhibition of firing rates of dopaminergic neurons in the substantia nigra pars compacta by intravenous injection in rats. The note with it: Rattus norvegicus, Substantia nigra pars compacta, iv; read-out: ED50. In kind it is functional.
For test [32], the system named is Mus musculus. Put plainly: Time of effect in the isolation-induced aggression behavioral assay in the mouse when a dose of 11 micro mol/kg is administered perorally. Type of test: functional.
Test [33] has as its system Mus musculus. The experiment in a line: Time of effect in the face-to-face behavioral assay in the mouse when a dose of 3.6 micro mol/kg is administered perorally. Type of test: functional.
For test [34], the system named is Mus musculus. Put plainly: Time of effect in the isolation-induced aggression behavioral assay in the mouse when a dose of 3.6 micro mol/kg is administered perorally. Type of test: functional.
For test [35], the target named is T2, D(2) dopamine receptor (Rattus norvegicus, UniProt P61169). The experiment in a line: Inhibitory concentration against [3H]raclopride-labeled dopamine receptor D2 in rat striatum. Type of test: tissue-based.
T2 sequence (P61169 whole entry): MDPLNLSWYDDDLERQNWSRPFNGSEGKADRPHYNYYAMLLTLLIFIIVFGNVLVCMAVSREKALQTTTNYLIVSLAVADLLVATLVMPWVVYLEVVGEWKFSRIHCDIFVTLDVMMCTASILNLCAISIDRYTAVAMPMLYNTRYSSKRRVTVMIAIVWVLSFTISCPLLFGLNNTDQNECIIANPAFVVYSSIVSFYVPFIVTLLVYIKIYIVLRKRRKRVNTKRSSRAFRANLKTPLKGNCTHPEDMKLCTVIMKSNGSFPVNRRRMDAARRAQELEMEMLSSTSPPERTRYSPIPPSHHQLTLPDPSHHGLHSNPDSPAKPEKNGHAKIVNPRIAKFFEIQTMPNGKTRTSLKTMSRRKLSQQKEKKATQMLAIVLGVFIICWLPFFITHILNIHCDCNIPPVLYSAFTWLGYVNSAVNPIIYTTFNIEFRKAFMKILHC
The test system of test [36] is Mus musculus. Put plainly: Antagonism of apomorphine in reserpinized mice when a dose of 4 micro mol/kg is administered intraperitoneally. In kind it is functional.
In test [37] the test system is Mus musculus. The experiment in a line: Antagonism of apomorphine for 0-10 minutes in reserpinized mice when a dose of 4 micro mol/kg is administered intraperitoneally. In kind it is functional.
Test [38] relates to Mus musculus. Put plainly: Antagonism of apomorphine for 10-20 minutes in reserpinized mice when a dose of 4 micro mol/kg is administered intraperitoneally. In kind it is functional.
Test [39] concerns Mus musculus. Put plainly: Ability to stimulate dopaminergic systems by effect on locomotor activity in reserpinized mice when a dose of 4 micro mol/kg is administered intraperitoneally. In kind it is functional.
Test [40] has as its system Mus musculus. Put plainly: Antagonism of apomorphine for 0-10 minutes in reserpinized mice when a dose of 0.4 micro mol/kg is administered intraperitoneally (*,p<0.05). In kind it is functional.
Test [41] has as its target T2, D(2) dopamine receptor. The experiment in a line: Compound was evaluated for the binding affinity against [3H]U-86,170-labeled dopamine receptor D2 in cloned CHO cells. In kind it is cell-based.

“And” between values parts separate entries of the source, which are not always exact repeats. Equal values may be shown once.

T1 sequence (P14416 whole entry): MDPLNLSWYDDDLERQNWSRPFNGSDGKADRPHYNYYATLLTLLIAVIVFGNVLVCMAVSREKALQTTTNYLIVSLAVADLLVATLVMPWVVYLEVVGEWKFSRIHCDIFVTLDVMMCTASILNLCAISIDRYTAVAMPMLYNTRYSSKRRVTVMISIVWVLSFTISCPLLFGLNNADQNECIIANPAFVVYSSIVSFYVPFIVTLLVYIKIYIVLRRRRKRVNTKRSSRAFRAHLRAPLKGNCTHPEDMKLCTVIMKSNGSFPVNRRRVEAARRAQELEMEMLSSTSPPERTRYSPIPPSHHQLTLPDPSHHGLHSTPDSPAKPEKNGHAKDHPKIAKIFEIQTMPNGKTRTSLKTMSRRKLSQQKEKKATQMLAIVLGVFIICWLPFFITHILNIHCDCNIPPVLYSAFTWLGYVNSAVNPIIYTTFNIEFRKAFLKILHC

For `C=CCN1CC[C@@H]2c3c(cccc3OC)CC[C@H]21` (racemic), the Locomotor activity with Mus musculus [1] is listed as 65; with Mus musculus [2] it was 65; in the test with Mus musculus [4], 140; in the test on Mus musculus [5] it was 57; in the test with Mus musculus [6] it was 65; in the test on Mus musculus [8] it was 40. Moreover, the Locomotor activity with Mus musculus [9] is on record as 36; with Mus musculus [11], 5; in the test with Mus musculus [12], 48; with Mus musculus [13] it was 32; in the test on Mus musculus [14] it was 11; with Mus musculus [17], 30. At D(2) dopamine receptor [3], this compound gave a Ki of 8.5 nM. Besides, the Control in the test filed under Rattus norvegicus [7] is recorded as -28%; in the test listed under Rattus norvegicus [18], 158%. The compound also yielded an ED50 in the test with Mus musculus [10] of 40 µmol/kg. The compound also registered a Max temperature decrease in the test on Mus musculus [15] of 4.5. Further, the Intrinsic activity at D(2) dopamine receptor [16] was found to be 0%.
Turning to `C=CCN1CC[C@H]2c3c(cccc3OC)CC[C@H]21` (racemic), the Max temperature decrease is recorded as 3.6 with Mus musculus [19] and 4.2 with Mus musculus [15]. Also, the Control is given as 59% with Felis catus [20], 189% in the test on Felis catus [23], -52% in the test filed under Rattus norvegicus [7] and 48% with Rattus norvegicus [24]. Besides, the Locomotor activity came to 121 in the test on Mus musculus [1]; 96 in the test on Mus musculus [2]; 55 with Mus musculus [4]; 94 in the test with Mus musculus [5]; 94 in the test with Mus musculus [6]; 54 with Mus musculus [8]. Further, the Locomotor activity turned out to be 6 in the test on Mus musculus [9]; 4 with Mus musculus [11]; 70 in the test on Mus musculus [12]; 45 with Mus musculus [13]; 37 with Mus musculus [14]; 6 in the test with Mus musculus [17]. Also, the ED50 was determined as 101 µmol/kg with Mus musculus [21], 0.04 µmol/kg in the test on Rattus norvegicus [22] and 8.2 µmol/kg in the test with Mus musculus [10].
Turning to `C=CCN1CCC2c3c(cccc3OC)CC[C@H]21` (single isomer, unassigned; (-)), the Control in the test with Felis catus [20] was 55%; in the test with Felis catus [23] it was 385%. The Locomotor activity with Mus musculus [1] came to 52; in the test on Mus musculus [2], 29; with Mus musculus [4], 50; in the test on Mus musculus [5], 49; in the test on Mus musculus [6], 45; with Mus musculus [8] it was 24. The Locomotor activity was 7 with Mus musculus [9]; 11 with Mus musculus [11]; 52 with Mus musculus [12]; 18 in the test on Mus musculus [13]; 79 in the test on Mus musculus [14]; 14 in the test on Mus musculus [17]. Moreover, the Time with Mus musculus [25] was 18 s and 27 s; with Mus musculus [26], 1.4 s; in the test with Mus musculus [27], 0.9 s; with Mus musculus [28], 236 s; in the test on Mus musculus [30], 1.2 s; in the test with Mus musculus [32] it was 40 s. In addition, the Time in the test on Mus musculus [33] stood at 1.3 s; in the test on Mus musculus [34], 85 s. In addition, the ED50 with Rattus norvegicus [29] stood at 0.007 µmol/kg; with Rattus norvegicus [31], 0.04 µmol/kg. Further, the affinity on D(2) dopamine receptor [3] corresponds to a Ki of 6.7 nM. For the same compound, the Intrinsic activity on D(2) dopamine receptor [16] worked out at 24%.
For the compound `CCCN1CC[C@@H]2c3ccccc3CC[C@H]21` (racemic), at D(2) dopamine receptor [35], the IC50 is above 1000 nM. Moreover, the Locomotor activity with Mus musculus [36] worked out at 48; in the test with Mus musculus [2] it was 41; in the test with Mus musculus [37], 22; with Mus musculus [38], 46; in the test with Mus musculus [4], 55; in the test with Mus musculus [6], 61. Besides, the Locomotor activity was 22 with Mus musculus [9] and 15 in the test on Mus musculus [39].
Regarding `CCCN1CC[C@H]2c3ccccc3CC[C@H]21` (racemic), the Locomotor activity in the test on Mus musculus [4] was determined as 128; in the test with Mus musculus [6] it was 76; in the test on Mus musculus [9], 15; in the test with Mus musculus [40], 56. At D(2) dopamine receptor [41], this compound gave a Ki of 548 nM.
